Data as given in patent US8354246B2, “Non-MCCJ25-related lariat-peptide inhibitors of bacterial RNA polymerase” (priority 2006, dated 2013).
Bridge positions count the residues as written; N and C are the ends. Peptide text beside a SMILES is read from it.

What was measured:
[1] = target: T1, Escherichia coli σ^70 RNAP holoenzyme (Escherichia coli, UniProt P0A8T7); assay: fluorescence-detected abortive initiation assay; format: biochemical; details: lacUV5-12 DNA fragment, 37° C.
T1 construct: purchased Epicentre, Inc
Method: (§1) Following incubation of reaction mixtures for 5 min at 22° C., 1 μl 1.1 μM DNA fragment lacUV5-12 (Mukhopadhyay et al. (2001) Cell 106, 453-463) was added. Following further incubation of reaction mixtures for […] at 37° C., 0.5 μl 1 mg/ml heparin (Sigma, Inc.; omitted in experiments with T. thermophilus RNAP) and 0.5 μl of 2.75 mM (γ-AmNS)UTP (Molecular Probes, Inc.) were added, and reaction mixtures were transferred to sub-micro fluorometer cuvettes (Starna Cells, Inc.). Following further incubation of reaction mixtures for 2 min at 37° C., RNA synthesis was initiated by addition of 2 μl 11 mM ApA (Sigma, Inc.), and fluorescence emission intensity was monitored for 5 min at 37° C. [excitation wavelength=360 nm and emission wavelength=500 nm; excitation and emission slit widths=4 nm; QuantaMaster QM1 spectrofluorometer (PTI, Inc.)]. The quantity of UMP incorporated into RNA was determined from the quantity of (γ-AmNS) UTP consumed, which, in turn, was calculated as follows (Schlageck et al. 1979): (γ-AmNS)UTPconsumed=[(γ-AmNS)UTP0](Ft−F0)/(12.4×F0) where (γ-AmNS)UTP0 is the quantity of (γ-AmNS)UTP at time 0, F0 is the fluorescence emission intensity at time 0, and Ft is the fluorescence emission intensity at time t.

[2] = target: T2, Thermus thermophilus σ^A RNAP holoenzyme (Thermus thermophilus, UniProt Q8RQE8); assay: fluorescence-detected abortive initiation assay; format: biochemical; details: lacUV5-12 DNA fragment, 37° C.
T2 construct: made in house
Method: as §1

[3] = system: mesophilic endo- and exopeptidease; details: tested mesophilic endo- and exopeptidases; cited from earlier work
[4] = system: Gram-positive bacterial RNAP; details: Yuzenkova, et al. (2002); cited from earlier work
[5] = system: Thermus-Deinoccoccus bacterial RNAP; details: Yuzenkova, et al. (2002); cited from earlier work
[6] = tested thermal and chemical denaturants; cited from earlier work

T1 sequence (P00579 whole entry, the tested form may be a part): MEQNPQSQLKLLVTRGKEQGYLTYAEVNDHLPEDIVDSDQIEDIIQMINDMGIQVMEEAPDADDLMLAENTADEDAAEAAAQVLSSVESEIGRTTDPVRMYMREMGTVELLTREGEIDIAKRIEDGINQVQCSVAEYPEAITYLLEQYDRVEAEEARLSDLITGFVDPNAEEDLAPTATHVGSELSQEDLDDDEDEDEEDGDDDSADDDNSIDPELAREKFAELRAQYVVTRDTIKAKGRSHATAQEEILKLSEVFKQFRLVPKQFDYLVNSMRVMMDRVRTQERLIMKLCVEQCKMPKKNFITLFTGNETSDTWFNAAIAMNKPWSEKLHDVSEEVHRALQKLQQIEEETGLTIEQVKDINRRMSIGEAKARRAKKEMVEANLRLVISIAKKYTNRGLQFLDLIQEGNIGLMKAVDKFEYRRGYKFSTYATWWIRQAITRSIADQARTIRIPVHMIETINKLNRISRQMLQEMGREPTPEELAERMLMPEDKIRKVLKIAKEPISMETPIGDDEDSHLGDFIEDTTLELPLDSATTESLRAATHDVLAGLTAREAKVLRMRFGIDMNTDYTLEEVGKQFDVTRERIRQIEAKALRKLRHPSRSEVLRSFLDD
T1 sequence (P0A8T7 whole entry, the tested form may be a part): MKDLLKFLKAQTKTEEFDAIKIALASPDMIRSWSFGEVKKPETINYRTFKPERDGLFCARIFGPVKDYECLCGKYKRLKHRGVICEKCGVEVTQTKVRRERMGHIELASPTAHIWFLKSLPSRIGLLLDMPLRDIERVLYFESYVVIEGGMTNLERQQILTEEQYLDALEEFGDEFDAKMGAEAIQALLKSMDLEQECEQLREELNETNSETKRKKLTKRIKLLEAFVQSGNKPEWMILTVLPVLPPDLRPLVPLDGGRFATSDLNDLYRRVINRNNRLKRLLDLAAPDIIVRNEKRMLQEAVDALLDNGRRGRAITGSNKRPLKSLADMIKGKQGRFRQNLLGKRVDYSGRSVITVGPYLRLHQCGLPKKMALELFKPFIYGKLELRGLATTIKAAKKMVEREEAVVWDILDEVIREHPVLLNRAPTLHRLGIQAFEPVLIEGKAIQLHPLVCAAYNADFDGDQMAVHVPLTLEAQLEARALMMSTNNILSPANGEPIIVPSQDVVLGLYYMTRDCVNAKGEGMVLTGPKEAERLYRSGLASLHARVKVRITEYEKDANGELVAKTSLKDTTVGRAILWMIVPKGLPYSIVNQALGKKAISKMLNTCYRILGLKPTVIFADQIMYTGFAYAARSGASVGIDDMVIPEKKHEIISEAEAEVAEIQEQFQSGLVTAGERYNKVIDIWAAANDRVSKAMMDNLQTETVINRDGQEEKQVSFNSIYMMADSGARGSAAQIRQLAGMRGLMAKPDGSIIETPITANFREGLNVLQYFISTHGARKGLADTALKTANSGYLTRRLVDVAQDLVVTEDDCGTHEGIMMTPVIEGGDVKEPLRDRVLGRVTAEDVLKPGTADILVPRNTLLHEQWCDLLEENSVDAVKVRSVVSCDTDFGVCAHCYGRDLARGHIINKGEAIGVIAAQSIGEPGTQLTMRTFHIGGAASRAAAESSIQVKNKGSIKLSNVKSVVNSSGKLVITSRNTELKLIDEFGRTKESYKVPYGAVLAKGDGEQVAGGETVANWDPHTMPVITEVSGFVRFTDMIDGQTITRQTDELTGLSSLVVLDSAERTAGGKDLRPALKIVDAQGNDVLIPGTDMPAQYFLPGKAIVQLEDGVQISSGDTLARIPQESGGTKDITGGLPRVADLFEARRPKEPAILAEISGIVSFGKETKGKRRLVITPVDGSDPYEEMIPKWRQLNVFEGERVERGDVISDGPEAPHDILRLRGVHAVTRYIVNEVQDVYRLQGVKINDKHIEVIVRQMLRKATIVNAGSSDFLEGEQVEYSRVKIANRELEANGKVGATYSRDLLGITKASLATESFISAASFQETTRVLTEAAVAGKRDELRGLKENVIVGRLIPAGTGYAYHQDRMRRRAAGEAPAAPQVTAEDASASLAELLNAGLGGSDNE
T1 sequence (P0A8V2 whole entry, further chain, the tested form may be a part): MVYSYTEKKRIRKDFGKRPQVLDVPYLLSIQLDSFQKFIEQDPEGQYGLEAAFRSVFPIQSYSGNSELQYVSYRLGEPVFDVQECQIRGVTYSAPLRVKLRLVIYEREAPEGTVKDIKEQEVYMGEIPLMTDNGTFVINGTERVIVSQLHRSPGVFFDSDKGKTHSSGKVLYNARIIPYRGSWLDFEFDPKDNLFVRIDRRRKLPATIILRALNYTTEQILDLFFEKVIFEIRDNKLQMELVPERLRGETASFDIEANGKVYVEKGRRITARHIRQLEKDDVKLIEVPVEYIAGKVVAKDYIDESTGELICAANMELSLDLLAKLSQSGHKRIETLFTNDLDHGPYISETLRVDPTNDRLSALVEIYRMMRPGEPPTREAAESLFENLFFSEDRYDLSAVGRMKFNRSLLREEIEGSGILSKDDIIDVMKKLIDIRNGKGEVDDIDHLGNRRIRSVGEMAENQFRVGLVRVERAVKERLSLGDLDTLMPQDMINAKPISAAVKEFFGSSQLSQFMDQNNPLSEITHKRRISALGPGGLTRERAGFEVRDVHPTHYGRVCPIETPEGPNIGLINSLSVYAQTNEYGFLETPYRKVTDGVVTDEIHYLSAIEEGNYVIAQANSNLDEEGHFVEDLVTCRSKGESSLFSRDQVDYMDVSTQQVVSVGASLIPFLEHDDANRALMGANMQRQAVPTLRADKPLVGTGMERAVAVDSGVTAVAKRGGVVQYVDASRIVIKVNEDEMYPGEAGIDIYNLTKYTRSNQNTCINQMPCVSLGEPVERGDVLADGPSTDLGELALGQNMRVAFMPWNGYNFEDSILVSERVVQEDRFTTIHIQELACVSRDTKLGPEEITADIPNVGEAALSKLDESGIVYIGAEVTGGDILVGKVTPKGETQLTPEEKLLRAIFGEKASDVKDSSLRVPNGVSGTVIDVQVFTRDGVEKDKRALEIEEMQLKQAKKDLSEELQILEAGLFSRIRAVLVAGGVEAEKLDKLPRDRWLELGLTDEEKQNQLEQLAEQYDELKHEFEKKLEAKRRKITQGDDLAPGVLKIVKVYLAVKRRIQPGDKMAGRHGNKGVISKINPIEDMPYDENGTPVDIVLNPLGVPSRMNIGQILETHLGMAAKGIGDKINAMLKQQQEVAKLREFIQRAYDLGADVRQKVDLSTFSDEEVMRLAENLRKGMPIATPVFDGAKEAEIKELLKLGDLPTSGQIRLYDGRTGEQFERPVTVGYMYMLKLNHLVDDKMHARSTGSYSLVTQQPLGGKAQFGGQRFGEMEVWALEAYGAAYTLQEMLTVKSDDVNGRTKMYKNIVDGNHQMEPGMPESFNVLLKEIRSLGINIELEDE
T1 sequence (P0A800 whole entry, further chain, the tested form may be a part): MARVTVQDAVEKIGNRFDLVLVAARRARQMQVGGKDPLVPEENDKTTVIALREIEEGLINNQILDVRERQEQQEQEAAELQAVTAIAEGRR
T1 sequence (P0A7Z4 whole entry, further chain, the tested form may be a part): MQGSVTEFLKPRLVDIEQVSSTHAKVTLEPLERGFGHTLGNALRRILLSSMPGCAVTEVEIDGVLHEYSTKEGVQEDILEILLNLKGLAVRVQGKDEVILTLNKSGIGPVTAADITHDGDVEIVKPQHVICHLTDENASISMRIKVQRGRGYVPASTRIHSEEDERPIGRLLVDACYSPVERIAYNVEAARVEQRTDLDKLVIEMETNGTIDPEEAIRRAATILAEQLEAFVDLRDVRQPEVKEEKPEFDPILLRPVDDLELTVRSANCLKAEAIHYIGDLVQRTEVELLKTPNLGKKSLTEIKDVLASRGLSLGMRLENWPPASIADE

For CC[C@H](C)[C@H](NC(=O)[C@H](Cc1ccccc1)NC(=O)[C@@H](NC(=O)[C@H](Cc1cnc[nH]1)NC(=O)CNC(=O)CNC(=O)[C@H](Cc1ccccc1)NC(=O)[C@H](CC(C)C)NC(=O)[C@@H]1CC(=O)NCC(=O)N[C@@H](Cc2ccc(O)cc2)C(=O)N2CCC[C@H]2C(=O)N[C@@H](Cc2c[nH]c3ccccc23)C(=O)N[C@@H](Cc2c[nH]c3ccccc23)C(=O)N[C@@H](CC(=O)O)C(=O)N[C@@H](Cc2ccc(O)cc2)C(=O)N[C@@H](CCCNC(=N)N)C(=O)N1)[C@@H](C)O)C(=O)N[C@@H](CO)C(=O)N1CCC[C@H]1C(=O)O [propeptin] (GYPWWDYRDLFGGHTFISP-OH; lactam N-9), the IC50 [1] was 30 µM and the IC50 [2] was 5 µM.
For “Gly1-Gly2-Ala3-Gly4-His5-Pro6-Val7-Glu8-Tyr9-Phe10-Val11-Gly12-Ile13-Gly14-Thr15-Pro16-Ile17-Ser18-Phe19-Tyr20-Gly21 cyclic(8→1) peptide [MccJ25]”, the resistance to proteolysis [3] is listed as “complete resistance to tested mesophilic endo- and exopeptidease”, the “inhibition of Gram-positive bacterial RNAP” value [4] is listed as “does not inhibit” and the “inhibition of Thermus-Deinoccoccus bacterial RNAP” value [5] is listed as “does not inhibit”. The resistance to denaturation [6] was “complete resistance to tested thermal and chemical denaturants”.
In the case of C[C@@H](O)[C@@H]1NC(=O)CNC(=O)[C@H](Cc2c[nH]cn2)NC(=O)[C@H](Cc2c[nH]c3ccccc23)NC(=O)[C@H](CC(N)=O)NC(=O)CNC(=O)C[C@@H](C(=O)N[C@@H](Cc2c[nH]c3ccccc23)C(=O)N[C@@H](Cc2ccccc2)C(=O)N[C@@H](Cc2ccccc2)C(=O)N[C@@H](CC(N)=O)C(=O)N[C@@H](Cc2ccc(O)cc2)C(=O)N[C@@H](Cc2ccc(O)cc2)C(=O)N[C@@H](Cc2c[nH]c3ccccc23)C(=O)O)NC(=O)[C@@H]2CCCN2C(=O)[C@H](CO)NC1=O [RES-701-3] (GNWHGTSPDWFFNYYW-OH; lactam N-9; C-terminus assumed), the IC50 [1] is reported as 20 µM and the IC50 [2] is reported as 2 µM.
